According to ChEMBL document CHEMBL1914338, “Tricyclic series of heat shock protein 90 (Hsp90) inhibitors part I: discovery of tricyclic imidazo[4,5-c]pyridines as potent inhibitors of the Hsp90 molecular chaperone” (J Med Chem, 2011):

Assays:
P388 [1] = experiment: Antitumor activity in mouse P388 cells xenografted in B6D2F1 mouse assessed as increase in mouse life span at 80 mg/kg/day, ip for 4 days relative to control; assay type: functional; settings: route intraperitoneal
P388 [2] = experiment: Antitumor activity in mouse P388 cells xenografted in B6D2F1 mouse assessed as median day of death at 80 mg/kg/day, ip for 4 days (reference value: 10 days); assay type: functional; settings: route intraperitoneal
[3] = target: T1, Heat shock protein HSP 90-beta (Homo sapiens, UniProt P08238)
Description: Binding affinity to human Hsp90beta assessed as association constant after overnight incubation by fluorescence polarization assay

[4] = target: T1, Heat shock protein HSP 90-beta; remark: listed apart in the source
Description: Inhibition of HSP90beta in human SKBR3 cells assessed as down regulation of HER2 expression levels after 24 hrs by FACS analysis

[5] = target: T1, Heat shock protein HSP 90-beta; remark: listed apart in the source
Description: Inhibition of human Hsp90beta after overnight incubation by fluorescence polarization assay

T1 sequence (P08238 whole entry): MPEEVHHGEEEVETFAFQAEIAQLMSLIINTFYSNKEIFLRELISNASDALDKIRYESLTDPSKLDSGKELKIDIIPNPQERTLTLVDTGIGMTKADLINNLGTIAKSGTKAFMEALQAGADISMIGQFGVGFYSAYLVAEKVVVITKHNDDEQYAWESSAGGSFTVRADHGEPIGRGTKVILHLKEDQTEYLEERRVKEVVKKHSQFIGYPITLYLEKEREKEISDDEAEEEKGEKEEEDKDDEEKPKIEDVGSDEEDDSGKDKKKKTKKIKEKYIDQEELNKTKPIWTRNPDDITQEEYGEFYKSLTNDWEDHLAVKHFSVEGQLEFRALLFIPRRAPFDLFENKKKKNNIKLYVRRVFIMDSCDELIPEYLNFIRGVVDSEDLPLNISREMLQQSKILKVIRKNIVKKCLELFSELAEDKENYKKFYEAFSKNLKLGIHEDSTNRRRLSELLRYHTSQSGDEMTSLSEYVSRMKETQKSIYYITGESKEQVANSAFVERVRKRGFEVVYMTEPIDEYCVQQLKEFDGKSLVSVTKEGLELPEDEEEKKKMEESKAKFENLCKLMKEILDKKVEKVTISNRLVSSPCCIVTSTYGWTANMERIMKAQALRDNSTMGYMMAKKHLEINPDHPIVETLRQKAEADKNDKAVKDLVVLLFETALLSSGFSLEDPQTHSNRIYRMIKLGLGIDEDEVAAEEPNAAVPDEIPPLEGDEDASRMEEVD

Row | IC50 [4] [µM] | Structure (SMILES) | further results
1 | – | C=CCNC1=C2C[C@@H](C)C[C@H](OC)[C@H](O)[C@@H](C)/C=C(\C)[C@H](OC(N)=O)[C@@H](OC)/C=C\C=C(/C)C(=O)NC(=CC1=O)C2=O [TANESPIMYCIN] | Activity (P388 [1]): 30%; Time (P388 [2]): 13 days; Ka [3]: 1.2 ×10⁴ /M/s
2 | > 50 | O=C1c2ccccc2-c2c1cccc2-c1nc2cnccc2[nH]1 | –
3 | 50 | NC(=O)CCC(=O)NC1c2ccccc2-c2c(-c3nc4cnccc4[nH]3)cccc21 (racemic) | –
4 | 0.9 | Nc1cc(C(=O)NC2c3ccccc3-c3c(-c4nc5ccncc5[nH]4)cccc32)ccn1 (racemic) | –
5 | – | Cc1onc(-c2ccc(O)cc2O)c1-c1ccccc1 | IC50 [5]: 7.6 µM
6 | > 50 | O=C1c2ccccc2C2=C(c3nc4ccncc4[nH]3)CCCN12 | –
7 | 1.3 | O=C(NC1c2ccccc2-c2c(-c3nc4ccccc4[nH]3)cccc21)c1cccc2ncccc12 (racemic) | –
8 | 1.3 | O=C(NC1c2ccccc2-c2c(-c3nc4ccncc4[nH]3)cccc21)c1ccncc1 (racemic) | –
